{"source": "patent US9132134B2", "about": "“Methods for treating GI tract disorders” (Neurogastrx, Inc., priority 2012, dated 2015)", "key": {"H1": {"target": "H1 (Homo sapiens (Human), UniProt P35367)", "sequence (P35367 whole entry)": "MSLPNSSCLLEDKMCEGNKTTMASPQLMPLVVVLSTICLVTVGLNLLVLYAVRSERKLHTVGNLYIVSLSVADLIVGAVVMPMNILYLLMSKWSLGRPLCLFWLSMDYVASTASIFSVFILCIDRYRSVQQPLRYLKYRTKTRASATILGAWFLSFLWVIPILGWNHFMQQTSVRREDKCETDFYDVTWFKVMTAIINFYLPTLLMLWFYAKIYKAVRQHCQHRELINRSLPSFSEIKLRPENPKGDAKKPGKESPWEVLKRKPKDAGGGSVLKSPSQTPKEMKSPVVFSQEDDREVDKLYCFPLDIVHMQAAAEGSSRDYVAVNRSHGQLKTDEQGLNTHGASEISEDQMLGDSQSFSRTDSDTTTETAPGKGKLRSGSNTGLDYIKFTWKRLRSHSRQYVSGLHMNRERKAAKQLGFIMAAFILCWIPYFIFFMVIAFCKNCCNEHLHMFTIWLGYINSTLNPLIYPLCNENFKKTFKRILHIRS", "assay": "Radioligand binding affinity, H1"}, "D3": {"target": "D3 (Homo sapiens (Human), UniProt P35462)", "sequence (P35462 whole entry)": "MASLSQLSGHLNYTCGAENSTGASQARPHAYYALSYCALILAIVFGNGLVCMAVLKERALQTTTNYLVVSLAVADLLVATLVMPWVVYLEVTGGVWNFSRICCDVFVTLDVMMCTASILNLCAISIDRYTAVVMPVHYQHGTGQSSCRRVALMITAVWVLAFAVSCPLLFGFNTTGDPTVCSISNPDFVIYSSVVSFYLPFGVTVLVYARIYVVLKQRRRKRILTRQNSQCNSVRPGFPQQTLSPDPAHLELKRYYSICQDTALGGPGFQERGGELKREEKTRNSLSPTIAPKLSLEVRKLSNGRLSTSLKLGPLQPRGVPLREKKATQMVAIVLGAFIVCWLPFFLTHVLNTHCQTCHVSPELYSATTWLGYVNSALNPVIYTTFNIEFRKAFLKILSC", "assay": "Radioligand binding affinity, D3"}, "[1]": {"assay": "Therapeutic plasma concentrations"}, "5HT2": {"target": "5HT2", "assay": "Radioligand binding affinity, 5HT2"}, "hERG channel": {"target": "hERG channel (Homo sapiens (Human), UniProt Q12809)", "sequence (Q12809 whole entry)": "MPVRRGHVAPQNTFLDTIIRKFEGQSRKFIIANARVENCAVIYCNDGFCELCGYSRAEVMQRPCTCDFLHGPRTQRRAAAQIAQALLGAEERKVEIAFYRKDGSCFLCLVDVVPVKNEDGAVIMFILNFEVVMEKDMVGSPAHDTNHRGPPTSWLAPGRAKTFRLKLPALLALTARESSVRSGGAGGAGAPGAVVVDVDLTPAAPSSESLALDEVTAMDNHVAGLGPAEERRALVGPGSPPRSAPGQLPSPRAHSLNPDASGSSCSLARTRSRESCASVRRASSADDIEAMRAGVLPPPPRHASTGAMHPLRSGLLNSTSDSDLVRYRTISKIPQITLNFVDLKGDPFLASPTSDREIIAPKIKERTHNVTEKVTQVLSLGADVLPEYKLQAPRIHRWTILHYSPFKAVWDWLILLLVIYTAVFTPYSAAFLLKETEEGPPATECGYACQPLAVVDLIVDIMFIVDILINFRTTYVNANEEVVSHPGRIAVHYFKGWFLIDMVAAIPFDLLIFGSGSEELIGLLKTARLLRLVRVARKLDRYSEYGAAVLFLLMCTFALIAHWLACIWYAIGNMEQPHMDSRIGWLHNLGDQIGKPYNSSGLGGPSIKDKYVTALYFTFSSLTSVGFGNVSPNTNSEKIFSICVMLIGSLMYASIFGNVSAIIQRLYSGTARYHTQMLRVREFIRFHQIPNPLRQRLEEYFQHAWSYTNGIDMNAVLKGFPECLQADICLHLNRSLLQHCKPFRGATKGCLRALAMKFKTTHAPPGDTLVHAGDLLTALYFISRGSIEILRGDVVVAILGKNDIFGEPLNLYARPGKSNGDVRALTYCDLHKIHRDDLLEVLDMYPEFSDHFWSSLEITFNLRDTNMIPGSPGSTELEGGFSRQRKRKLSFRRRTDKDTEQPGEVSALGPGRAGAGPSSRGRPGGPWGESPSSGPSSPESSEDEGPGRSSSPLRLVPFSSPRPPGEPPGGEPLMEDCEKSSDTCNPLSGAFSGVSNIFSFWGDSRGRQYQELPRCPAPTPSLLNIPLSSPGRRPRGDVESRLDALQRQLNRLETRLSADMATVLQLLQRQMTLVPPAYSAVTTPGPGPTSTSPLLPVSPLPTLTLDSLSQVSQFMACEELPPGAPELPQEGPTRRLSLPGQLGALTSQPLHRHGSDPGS", "assay": "hERG voltage clamp assay in hERG-expressing cultured cells", "format": "cell-based", "settings": "for inhibition at 0.1 µM / inhibition at 1 µM / inhibition at 10 µM: human, hERG-expressing cultured cells, read-out: hERG Activity (% Inhibition of Tail Current); for inhibition at 0.1 µM: 100 nM; for pIC50: read-out: concentration necessary to inhibit 50% of the tail currents mediated by hERG channels"}, "5HT3": {"target": "5HT3 (Homo sapiens (Human), UniProt P46098)", "sequence (P46098 24-478, species assumed)": "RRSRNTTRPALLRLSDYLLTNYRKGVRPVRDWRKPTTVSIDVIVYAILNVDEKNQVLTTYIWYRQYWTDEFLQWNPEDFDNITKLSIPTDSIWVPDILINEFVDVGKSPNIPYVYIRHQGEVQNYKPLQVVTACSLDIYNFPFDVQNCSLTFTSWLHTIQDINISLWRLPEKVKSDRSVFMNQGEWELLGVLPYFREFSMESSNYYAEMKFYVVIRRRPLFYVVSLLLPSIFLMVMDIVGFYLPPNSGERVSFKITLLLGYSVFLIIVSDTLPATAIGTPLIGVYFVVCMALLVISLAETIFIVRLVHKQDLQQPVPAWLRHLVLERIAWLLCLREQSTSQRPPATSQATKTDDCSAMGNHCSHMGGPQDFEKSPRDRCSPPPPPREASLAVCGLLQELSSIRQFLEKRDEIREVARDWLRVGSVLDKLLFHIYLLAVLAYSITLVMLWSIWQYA", "assay": "Radioligand binding affinity, 5HT3"}, "α1": {"target": "α1", "assay": "Radioligand binding affinity, α1"}, "[2]": {"tested_on": "canine cardiac action potentials", "assay": "Canine cardiac action potentials by electrocardiography and telemetry", "format": "in vivo", "settings": "dogs; for QTc intervals as compared to vehicle-administered animals: oral gavage", "from_the_text": "Surgical Implantation of the Telemetry Device and ECG Leads. Anesthesia is introduced to dogs. Balanced gaseous anesthesia is used throughout the surgical procedure. Once anesthetized, animals are shaved and surgically scrubbed, encompassing surgical sites of the right inguinal area, chest and right lateral abdomen. Throughout the surgical procedure, animals are monitored for continuous assessment of vital signs. An incision is made along the right medial thigh and the femoral artery exposed by blunt dissection. Another incision is made in the lateral lumbar area cranial to the iliac crest for a tunneling needle to be passed subcutaneously from the incision on the medial thigh to the lumbar incision. A blood pressure catheter is passed through the needle from the lumbar incision and the needle removed. The femoral artery is ligated distally and incised to insert a catheter that is advanced until the tip resided in the femoral artery/abdominal aorta. The catheter is then secured by ligation. The incision in the lumbar area is enlarged and a subcutaneous pocket created in the left dorsal lumbar area to hold the transmitter body. The transmitter (e.g., Data Sciences International, St Paul, Minn., USA) is inserted into the subcutaneous pocket and secured body. Electrocardiography (ECG) leads are positioned. The incision is closed. Postoperative recovery lasts, e.g., about 2 weeks during which supplemental analgesics/antibiotics are administered as needed. Once the postoperative recovery period is complete, the animal is examined for study acceptability by the staff veterinarian and the implanted transmitter signal verified.\nStudy Design. […] ECGs, heart rate and arterial blood pressure data are recorded 1 hour prior to and then continuously for at least 6 hours following compound and/or vehicle administration. A blood sample for determination of compound plasma concentrations is collected from all subjects at approximately 6 h post-dose.\nECG Analysis. An ECG waveform morphology assessment, for the entire monitoring period, is completed for each dog by, e.g., a safety pharmacologist or veterinarian cardiologist. Standard ECG intervals (PR, RR, QRS and QT) are automatically measured by the data acquisition system and reported as, e.g., 10 min averages. The signals are collected with Data Sciences International Systems hardware. PR and QT manual overreads are conducted as appropriate. The manual measurements are completed from 50 mm s^−1 tracings at 30 min intervals. A mean of the three waveforms per time point are reported. QT intervals are corrected for heart rate (QTc) values by, e.g., using the formula by Funck-Bretano and Jaillon (1993).\nStatistical Analysis. […] Dose-level averages (and accompanying standard deviation (s.d.) of these baseline-adjusted 10 min averages are calculated across study animals. ANOVA (e.g., repeated measures ANOVA) are applied to these baseline-adjusted averages. Pairwise t-tests are applied within the ANOVA to identify the presence of significant differences of the dose levels relative to vehicle. These t-tests are performed at a 0.05/2=0.025 significance level, so that the overall error rate across the comparisons in a given interval are not higher than 0.05. ECG interval data (reported at 30 min intervals) are analyzed using, e.g., repeated-measures ANOVA techniques similar to the systemic blood pressure and heart rate data described above."}, "5HT4": {"target": "5HT4 (Homo sapiens (Human), UniProt Q13639)", "sequence (Q13639 whole entry, species assumed)": "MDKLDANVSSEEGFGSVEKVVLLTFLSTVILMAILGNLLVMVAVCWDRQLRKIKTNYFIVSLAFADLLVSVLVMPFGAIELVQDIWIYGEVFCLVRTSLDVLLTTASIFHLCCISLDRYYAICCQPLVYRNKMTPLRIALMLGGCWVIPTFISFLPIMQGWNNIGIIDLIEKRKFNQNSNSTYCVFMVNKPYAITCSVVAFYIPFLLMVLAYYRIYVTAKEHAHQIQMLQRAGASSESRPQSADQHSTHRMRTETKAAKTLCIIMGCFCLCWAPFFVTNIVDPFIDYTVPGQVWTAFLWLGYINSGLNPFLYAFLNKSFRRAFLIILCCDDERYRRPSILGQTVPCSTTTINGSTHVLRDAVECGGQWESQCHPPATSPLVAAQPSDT", "assay": "Radioligand binding affinity, 5HT4"}, "dopamine D2 receptor": {"target": "dopamine D2 receptor (Homo sapiens (Human), UniProt P14416)", "sequence (P14416 whole entry, species assumed)": "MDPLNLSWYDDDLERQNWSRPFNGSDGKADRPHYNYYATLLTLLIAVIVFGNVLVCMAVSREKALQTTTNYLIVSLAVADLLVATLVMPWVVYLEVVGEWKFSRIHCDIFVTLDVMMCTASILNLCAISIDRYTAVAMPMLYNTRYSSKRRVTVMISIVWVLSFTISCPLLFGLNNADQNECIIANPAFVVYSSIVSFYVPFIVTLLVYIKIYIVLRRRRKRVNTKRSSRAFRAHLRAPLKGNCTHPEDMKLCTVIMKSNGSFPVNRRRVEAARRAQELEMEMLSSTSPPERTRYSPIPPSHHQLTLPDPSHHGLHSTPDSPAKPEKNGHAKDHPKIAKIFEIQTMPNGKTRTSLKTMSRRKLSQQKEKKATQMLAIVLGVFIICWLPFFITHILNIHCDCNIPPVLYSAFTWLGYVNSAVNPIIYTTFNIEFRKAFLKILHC", "assay": "Radioligand binding assay, [3H]spiperone, membranes of D2 receptor expressing cells", "settings": "[3H]spiperone competition; read-out: Radioligand Binding Affinity (Ki, nM) D2"}, "[3]": {"tested_on": "gastric motility in canines", "assay": "Antral manometry (gastric motility) in canines", "format": "in vivo, canine", "settings": "for motor dysfunction: canines", "experimental": "Animals were fed an ad libitum chow diet (LabDiet®). After an overnight fast, the dogs were anesthetized with Pentothal (sodium thiopental, 11 mg/kg IV; Abbott Laboratories, North Chicago, Ill.) and maintained on 2-4% isoflurane (Abbott Laboratories) in oxygen (1 L/min) carrier gases delivered from a ventilator after endotracheal intubation. A cannula was placed in the jejunum 20 cm distal to the pylorus for the assessment of antral motility. Dogs were allowed to recover in their individual cages for 2 weeks. All experiments were performed after the dogs were completed recovered from the surgical procedure. The study was performed according to the National Institutes of Health Guidelines on the use of laboratory animals and approved by the Animal Care and Use Committee of the University of Texas Medical Branch at Galveston, Tex. To investigate the effect of the drugs on antral manometry, the study of each drug dose was done on three randomized sessions on separate days following the consumption of one can of solid dog food: 1) a Control session: In which animals received the vehicle only; 2) Dose I session: in which the lower dose of the drug was used; and 3) Dose II session: in which the higher dose of the drug was used (please refer to table for drug doses). Drug administration was performed according to Table 4, below. [table] Antral manometry was performed as follows. Following an overnight fast, an intraluminal water-perfused manometry catheter was inserted into the antrum through the jejunal cannula. Antral manometry recording was initiated after the consumption of one can of solid food and continued for 3 hours. The catheter contained 3 manometric sensors at a 1 cm interval. Dogs were given 10 minutes of accommodation, prior to the start of the recording. For data analysis, motility index (MI), defined as the integrated area (area under curve—AUC) between baseline and contractions per hour, was calculated. For statistical analysis, the Student's t-test was used for assessment of individual differences between groups (High dose, low dose of each drug) compared to control—Microsoft® Excel 2002). All values are expressed as mean±SEM. Significance was considered when p value was ≦0.05."}, "gastric emptying in rats [4]": {"tested_on": "gastric emptying in rats", "assay": "Solid gastric emptying in rats", "format": "in vivo, rat (Sprague-Dawley)", "experimental": "Animals: […] The animals received a standard laboratory rat chow and tap water ad libitum. The rats were around 400 g at 14 weeks age when used in gastric emptying study. Drugs: S-Carbidopa was purchased from Sigma (#: C1335). Stock solution of S-Carbidopa was prepared at 5 mg/ml using DMSO as solvent. 80 μl stock solution was further diluted into 1 ml distilled water to make 0.4 mg/ml. The effect of S-Carbidopa (1 mg/kg) on solid gastric emptying was studied. Procedures: Male SD rats were involved in this study. Rats were fasted in cages with metal wired mesh for 24 hours with free access to water; S-carbidopa (1 mg/kg) was administered to the rats by oral gavage. Control rats were not administered S-carbidopa. 15 minutes following administration, rats were given access to 2 g of rat chow pellets for ten minutes. All rats completely ingested the chow within the 10 minute time frame. Rats were sacrificed by sodium pentobarbital (100 mg/kg) overdose 90 min after feeding. The stomach was surgically isolated and removed. Gastric contents were recovered from the stomach, air dried for 48 hours and then weighed. Solid gastric emptying was calculated according to the following formula: Gastric emptying (%)=[1−(dried gastric content in g)/2 g]×100. All values are expressed as mean±SEM."}, "gastric emptying in rats [5]": {"tested_on": "gastric emptying in rats", "assay": "Solid gastric emptying in rats", "format": "in vivo, rat (Sprague-Dawley)", "settings": "preliminary"}}, "note": "pIC50: −log10 of the molar value. “And” between values parts separate entries of the source, which are not always exact repeats. Equal entries are not always repeated."}
{"smiles": "CS(=O)(=O)c1ccc2c(c1)N(CCCN1CCC(C(=O)O)CC1)c1ccccc1S2", "note": "[Metopimazine acid]", "values": [{"measurement": "Ki", "setting": "H1", "value": 140, "unit": "nM"}, {"measurement": "Ki", "setting": "D3", "value": "> 100", "unit": "nM"}, {"measurement": "Therapeutic plasma concentrations", "setting": "[1]", "value": "300 to 900", "unit": "nM"}, {"measurement": "Ki", "setting": "5HT2", "value": 370, "unit": "nM"}, {"measurement": "inhibition at 0.1 µM", "setting": "hERG channel", "value": 0.2, "unit": "%"}, {"measurement": "inhibition at 1 µM", "setting": "hERG channel", "value": 4, "unit": "%"}, {"measurement": "inhibition at 10 µM", "setting": "hERG channel", "value": 11, "unit": "%"}, {"measurement": "pIC50", "setting": "hERG channel", "value": "< 5.00"}, {"measurement": "Radioligand Binding Affinity (Ki, nM) 5HT3", "setting": "5HT3", "value": "Inactive"}, {"measurement": "Ki", "setting": "α1", "value": 210, "unit": "nM"}, {"measurement": "QTc intervals as compared to vehicle-administered animals", "setting": "[2]", "value": "no significant increases"}, {"measurement": "Radioligand Binding Affinity (Ki, nM) 5HT4", "setting": "5HT4", "value": "Inactive"}]}
{"smiles": "CCN(CC)CCNC(=O)c1cc(Cl)c(N)cc1OC", "note": "[Metoclopramide]", "values": [{"measurement": "Ki", "setting": "D3", "value": 16, "unit": "nM"}, {"measurement": "Ki", "setting": "dopamine D2 receptor", "value": 64, "unit": "nM"}]}
{"smiles": "CN(CCOc1ccc(NS(C)(=O)=O)cc1)CCc1ccc(NS(C)(=O)=O)cc1", "note": "[dofetilide]", "values": [{"measurement": "incidence of premature ventricular contractions, T-wave abnormalities, and right bundle branch block", "setting": "[2]; 0.3 mg/kg oral gavage", "value": "increases"}, {"measurement": "QTc intervals", "setting": "[2]; 0.3 mg/kg oral gavage, post-dose period of 1-6 hours", "value": "increased"}]}
{"smiles": "Cl.NCCc1ccc(O)c(O)c1", "note": "[dopamine hydrochloride, Dopamine hydrochloride]", "values": [{"measurement": "motility index (MI), antral manometry", "setting": "[3]; 50 mg/canine IV, immediately before meal, p=0.06", "value": "decreased MI in all channels"}]}
{"smiles": "C[C@@](Cc1ccc(O)c(O)c1)(NN)C(=O)O", "note": "[S-Carbidopa, (2S)-3-(3,4-dihydroxyphenyl)-2-hydrazino-2-methylpropanoic acid]", "values": [{"measurement": "motility index (MI), antral manometry", "setting": "[3]; 1 mg/kg IV, 15 min prior to meal, vs control, p=0.05", "value": "robustly increased MI in all three of the channels tested"}, {"measurement": "motor dysfunction", "setting": "[3]", "value": "no motor dysfunction was observered"}, {"measurement": "QTc intervals as compared to vehicle-administered animals", "setting": "[2]", "value": "no significant increases"}, {"measurement": "Gastric emptying (%), mean of the 3 rats", "setting": "gastric emptying in rats [4]; 1 mg/kg oral gavage, 90 min after feeding", "value": 68.2, "unit": "%"}, {"measurement": "solid gastric emptying compared to control rats", "setting": "gastric emptying in rats [4]; 1 mg/kg, rats, initial results", "value": "improves solid gastric emptying"}, {"measurement": "Gastric emptying (%)", "setting": "gastric emptying in rats [4]; individual rat, 1 mg/kg oral gavage, 90 min after feeding", "value": "55% and 62% and 87.5%"}, {"measurement": "stomach content", "setting": "gastric emptying in rats [4]; individual rat, 1 mg/kg oral gavage, dried gastric content (g) 90 min after 2 g chow", "value": "0.9 and 0.76 and 0.25"}, {"measurement": "motor dysfunction", "setting": "gastric emptying in rats [4]; rats", "value": "no motor dysfunction was observed"}]}
{"smiles": "CS(=O)(=O)c1ccc2c(c1)N(CCCN1CCC(C(N)=O)CC1)c1ccccc1S2", "note": "[Metopimazine, 1-[3-[2-(methylsulfonyl)-10H-phenothiazin-10-yl]propyl]-piperidine-4-carboxamide]", "values": [{"measurement": "increase in gastric emptying as compared to vehicle control", "setting": "gastric emptying in rats [5]; 3 mg/kg", "value": "about 40%"}, {"measurement": "increase in gastric emptying as compared to vehicle control", "setting": "gastric emptying in rats [5]; 10 mg/kg", "value": "about 18%"}, {"measurement": "increase in gastric emptying as compared to vehicle control", "setting": "gastric emptying in rats [5]; pooling the 3 mg/kg and 10 mg/kg doses", "value": "about 20%"}, {"measurement": "Ki", "setting": "D3", "value": 0.61, "unit": "nM"}, {"measurement": "Ki", "setting": "5HT2", "value": 15, "unit": "nM"}, {"measurement": "inhibition at 0.1 µM", "setting": "hERG channel", "value": 4.5, "unit": "%"}, {"measurement": "inhibition at 1 µM", "setting": "hERG channel", "value": 32, "unit": "%"}, {"measurement": "inhibition at 10 µM", "setting": "hERG channel", "value": 82, "unit": "%"}, {"measurement": "pIC50", "setting": "hERG channel", "value": "~5.52"}, {"measurement": "Ki", "setting": "dopamine D2 receptor", "value": 0.07, "unit": "nM"}, {"measurement": "Radioligand Binding Affinity (Ki, nM) 5HT3", "setting": "5HT3", "value": "Inactive"}, {"measurement": "Ki", "setting": "α1", "value": 1.9, "unit": "nM"}, {"measurement": "motor dysfunction", "setting": "[3]", "value": "no motor dysfunction was observered"}, {"measurement": "QTc intervals as compared to vehicle-administered animals", "setting": "[2]", "value": "no significant increases"}, {"measurement": "Radioligand Binding Affinity (Ki, nM) 5HT4", "setting": "5HT4", "value": "Inactive"}]}
